Laboratory results reported in patent US20250302822A1, “COMPOSITION FOR ENHANCING ANTICANCER EFFECT OF MEK INHIBITOR COMPRISING ARIPIPRAZOLE AS ACTIVE INGREDIENT” (KOREA INSTITUTE OF RADIOLOGICAL & MEDICAL SCIENCES, priority 2022, published 2025).

Key:
NOXA = NOXA protein expression in COLO 205 cells via Western blot; assay type: cell-based; details: eight hours after treatment, Western blot (FIG. 1)
Description: (§1) To identify an effect of aripiprazole on the expression of NOXA and PUMA proteins in cancer cells, COLO 205 cells were treated with aripiprazole. Eight hours later, proteins were extracted from cells after washing with PBS, and a level of NOXA and PUMA expression was checked via Western blot.

PUMA = PUMA protein expression in COLO 205 cells via Western blot; assay type: cell-based; details: eight hours after treatment, Western blot (FIG. 1)
Description: as §1

## O=C1CCc2ccc(OCCCCN3CCN(c4cccc(Cl)c4Cl)CC3)cc2N1 [aripiprazole]
NOXA
  expression of NOXA protein: increased
PUMA
  expression of PUMA protein: increased
